In one series the test system is MDA-MB-231. Nature of the series: Superoxide anion generation, DHE probe. The note with it: IC50 concentration, 24 h. The series is classed as cell-based, human. On the procedure:
The level of superoxide anion (O2^•−) was determined by microplate spectrofluorimetry with dihydroethidium (hydroethidine, DHE) (Life Technologies, Carlsbad, CA, USA), which is the most commonly used fluorogenic probe for monitoring the intracellular production of superoxide anion O2^•− [41]. […] Thanks to this shift, DHE can be used as a sensitive probe for cellular ROS. The reaction between superoxide and DHE generates a highly specific red fluorescent product, 2-hydroxyethidium (2-OH-E^+).
The cells were seeded in black 96-well fluorometric microplates at a density of 10 × 10^3 cells per well. […] After incubation, the medium was removed, the cell monolayer in the wells was washed twice with HBSS (140 mM NaCl, 5 mM KCl, 0.8 mM MgCl2, 1.8 mM CaCl2, 1 mM Na2HPO4, 10 mM HEPES and 1% glucose) and 50 μL of DHE solution in HBSS was added to each well (final probe concentration 5 μmol/L). Cells were incubated with the probe for 30 min in the dark in an incubator (37 °C), and then fluorescence was measured. The measurement was performed at the following excitation and fluorescence emission wavelengths: λex = 498 nm/λem = 582 nm. Fluorescence measurements were made on a Perkin-Elmer LS-5B spectrofluorometer (MA, USA). Fluorescence intensity values for control cells were arbitrarily set as 100%. The results are presented as percentages of control cell values, calculated relative to the fluorescence intensity of the controls (100%): sample fluorescence was calculated as Δf in relation to the controls.

The subject of series [1] is breast cancer cells (MCF-7, MDA-MB-231 and HCC38) and endometrial cancer cells (Ishikawa, Hec-1-A). In words: MTT cytotoxicity assay, summary over the cell lines. The series is classed as cell-based, human. As to conditions: Homo sapiens; range over the five cancer lines; read-out: IC50, range depending on the cancer line. As for the experimental part: (§1) Cell viability was determined using the metabolic microplate spectrophotometric assay with Methylthiazolyl diphenyltetrazolium bromide (MTT), i.e., 3-(4,5-Dimethyl-2-thiazolyl)-2,5-diphenyl-2H-tetrazolium bromide (Sigma-Aldrich; St. Louis, MO, USA). The anticancer activity of the investigated compounds was evaluated in vitro on the basis of their ability to inhibit the proliferation of various cancer cells. The appropriate number of cells for a given cell line (6–8 × 10^3 cells/mL) were seeded into sterile, colorless 96-well microplates. After 24 h of culture, specific wells of the microplate were treated with test compounds (10–200 µmol/L concentration) and incubated in a CO2 incubator for 24 h. The medium was then removed, the cell monolayer was washed twice with sterile PBS solution and fresh culture medium was added to the wells of the microplate.
(§2) After 48 h of cell culture, the MTT test was conducted. In each well of the microplate, 50 µL of tetrazolium salt solution (final concentration 0.05 mg/mL) was added. The microplate was then placed in a CO2 incubator for 3–4 h (depending on the cell line). Following incubation, 100 µL of DMSO (dimethyl sulfoxide, Sigma-Aldrich, St. Louis, MO, USA) was added to the microplate wells to dissolve the purple formazan crystals formed in the environment of living cells. The absorbance of the formazan solution was read at a wavelength of λ = 580 nm and a reference wavelength of λ = 720 nm after gentle mixing (Biotek Power Wave HT, Biotek Instruments, Winooski, VT, USA).
The percentage of live cells was calculated by comparing the absorbance value of the tested samples with that of the control (cells not treated with compounds). Control absorbance was arbitrarily considered to be 100%. […] Moreover, cisplatin (Sigma-Aldrich, St. Louis, MO, USA) was used as a reference compound, and identical incubation conditions were used as described above.
In general terms: Formazan colour is commonly taken as a measure of viable cells.

In the next series the test system is Ishikawa. Nature of the series: MTT cytotoxicity assay. It is filed as cell-based. As to conditions: Homo sapiens. As for the experimental part: as §1, §2
The percentage of live cells was calculated by comparing the absorbance value of the tested samples with that of the control (cells not treated with compounds). Control absorbance was arbitrarily considered to be 100%. […]

Another series relates to colon cancer lines. Nature of the series: GSH concentration in cancer cells (other studies, not yet published). It is filed as cell-based. As to conditions: results not yet published.
The nature of series [2]: MTT cytotoxicity assay, model of normal cells. It is filed as cell-based. As to conditions: human, HMEC-1 cells (model of normal cells), 24 h incubation, mean ± SEM, read-out: Cytotoxic effect, IC50. On the procedure:
as §1, §2
The percentage of live cells was calculated by comparing the absorbance value of the tested samples with that of the control (cells not treated with compounds). Control absorbance was arbitrarily considered to be 100%.

Series [3] relates to intrinsic coagulation pathway. Nature of the series: Activated partial thromboplastin time (APTT). As to conditions: 1–100 µmol/L; values did not exceed the reference range. The series is classed as biochemical, human. On the procedure:
Basic coagulation parameters were determined using Bio-Ksel reagents (Grudziądz, Poland): APTT reagent, calcium chloride, Bio-Ksel PT plus reagent (tromboplastin and solvent) and thrombin (3.0 UNIH/mL) for TT experiments. The methods were calibrated and the coefficient of variation (PT, APTT, TT experiments) was calculated using a calibrator (Bio-Ksel, Grudziadz, Poland), normal plasma (Bio-Ksel, Grudziądz, Poland) and water for injection (Polpharma, Gdańsk, Poland).
The experiments were conducted in multiplicates, and their results are presented as mean ± standard deviation (SD). Control samples consisting of distilled water and methanol were tested. All methods were validated using Bio-Ksel normal plasma, which was dissolved in water for injection (Polpharma, Gdańsk, Poland). The reference values for each test are as follows: PT: 9.7–13.8 s; INR: 0.9–1.2; APTT: 28.2–42.3 s; TT: 11.0–16.5 s for 3.0 UNIH/mL of thrombin.

The nature of series [4]: Water solubility by UV–Vis spectrophotometry (phase solubility with cyclodextrins). The series is classed as physicochemical. As to conditions: 25 °C, thermodynamic from solid, 298.15 K, without cyclodextrin, read-out: Solubility in H2O. As for the experimental part: Spectrophotometric measurements were performed using a SPECORD 50 single-beam UV–Vis spectrophotometer (Analyst Jena, Thuringia, Germany). The calibration lines of the compounds tested were determined for the concentration range of 3.0 × 10^−6 M to 1 × 10^−4 M (Figure 21). The molar extinction coefficients for 3, 3a, and 5 were determined experimentally in an aqueous ethanol solution; the relevant maximum wavelengths are presented in Table 9. The influence of α-cyclodextrins, β-cyclodextrins and HP-β-cyclodextrins on the solubility of the tested ligands in water was evaluated in three measurement series. Briefly, excess ligand was introduced into closed Eppendorff tubes containing α-CD, β-CD or HP-β-CD solutions, at concentrations ranging from 1 to 90 mM for α-CD and HP-β-CD and from 1 to 15 mM for β-CD. The test tubes were stored for 10 days at a temperature of 298.15 K until equilibrium was achieved. After this time, the solutions were centrifuged using a Microcentrifuge MPW-55 at 13,000 rpm for five minutes. For testing, a clear solution was taken from above the sediment and diluted appropriately so that the spectrum was within the operating range of the spectrophotometer.

The mark [5] stands for this setting: Ishikawa vs HMEC-1, read-out: IC50 in Ishikawa lower than that for HMEC-1, difference.
[6] abbreviates: Ishikawa, 24 h incubation, mean ± SEM, read-out: Cytotoxic effect, IC50.

Each structure is given as a SMILES string. Converted amounts (≈) assume the structure as drawn. Like-named read-outs stand apart in the source and are kept apart here.

The text below walks through data of publication PMC11312998, “Molecular Pro-Apoptotic Activities of Flavanone Derivatives in Cyclodextrin Complexes: New Implications for Anticancer Therapy” (International Journal of Molecular Sciences, 2024).

As usually defined, the IC50 is the concentration that inhibits the measured activity by half. A word on the solubility: it is how much of the substance goes into solution per volume.

As for `O=C1/C(=C/c2ccccc2)COc2ccccc21` [Compound 1], the “greater superoxide anion level relative to control (DHE probe)” value in the series on MDA-MB-231 is given as “approximately 20%”. Besides, the IC50 was 10 to 18 µM in series [1], roughly 10 µM in the series on Ishikawa (setting [5]) and 10.2 ± 1.8 µM in the series on Ishikawa (setting [6]). Besides, in the series on colon cancer lines, the “GSH concentration in cancer cells (in words)” value (“GSH concentration” below) was “decrease in GSH concentration”. For the same compound, the IC50 at 24 h in series [2] turned out to be 21.2 ± 3.1 µM.

In the case of `COc1cccc(/C=C2/C(=O)c3ccccc3OC2c2ccccc2)c1` (stereo not shown) [Compound 3], the “greater superoxide anion level relative to control (DHE probe)” value in the series on MDA-MB-231 is recorded as “approximately 20%”. Moreover, the “APTT time (in words)” value in series [3] is given as “mild, statistically significant prolongation of APTT time”. Moreover, the concentration for half-maximal inhibition (IC50) was 15 to 27 µM in series [1], roughly 10 µM in the series on Ishikawa (setting [5]) and 15.2 ± 1.6 µM with Ishikawa (setting [6]). The “GSH concentration” value in the series on colon cancer lines is “decrease in GSH concentration”. The solubility at 10 days in series [4] is 1.29 µM (≈ 0.442 µg/mL). The IC50 at 24 h in series [2] amounted to 24.1 ± 1.3 µM.

On to `O=C1/C(=C/c2ccccc2)C(c2ccccc2)Oc2ccccc21` (stereo not shown) [Compound 5], for which the “greater superoxide anion level relative to control (DHE probe)” value with MDA-MB-231 is listed as roughly 30%. Moreover, in series [3], the “APTT time (in words)” value was “mild, statistically significant prolongation of APTT time”. For the same compound, the IC50 in series [1] was 18 to 36 µM; with Ishikawa (setting [5]) it was roughly 10 µM; with Ishikawa (setting [6]), 18.6 ± 4.4 µM. Further, the “GSH concentration” value in the series with colon cancer lines is “decrease in GSH concentration”. Moreover, the solubility at 10 days in series [4] stood at 1.5 µM (≈ 0.469 µg/mL). Besides, the IC50 at 24 h in series [2] was determined as 19.7 ± 3.7 µM.
